Like-named read-outs stand apart in the source and are kept apart here.
How the values were obtained:
Assay in all cases: Test 1 of anti-proliferative activity against tumor cells (Cell-Titer Glo)
Type in all cases: cell-based
[1] = tested on: Human colorectal cancer cell line HCT116
Experimental: (§1) Cell culture: HCT116 cells and SKBR3 cells were cultured in McCoy's 5a medium containing 10% fetal bovine serum+1% penicillin-streptomycin at 37° C. and 5% CO2, and OVCAR3 cells were cultured in 1640 medium containing 20% fetal bovine serum+2 μg/mL bovine insulin+1% penicillin-streptomycin at 37° C. and 5% CO2. Cells in logarithmic growth phase were suitable for the experiment.
(§2) Detection of cell proliferation activity: The inhibitory activity of the compounds on the proliferation of the three cell lines HCT116, SKBR3 and OVCAR3 was detected using Cell-Titer Glo reagent. HCT116 cells (1500 cells per well), SKBR3 cells (3000 cells per well) and OVCAR3 cells (5000 cells per well) were seeded in 96-well plates and cultured at 37° C. and 5% CO2 for 24 h. The solution of the compound to be tested (the compound was dissolved in DMSO with the concentration of the compound being 1 mM, then the compound was diluted to 3 μM with DMSO, with 3-fold dilution and a total of 9 concentrations, and 10 μL of the prepared compound solution was transferred to a 96-well plate with the final concentration of 0-300 nM) was added. The cells were placed at 37° C. and 5% CO2 for further culture. HCT116 cells were cultured for 3 days, and SKBR3 cells and OVCAR3 cells were cultured for 5 days. The cell viability was detected by adding Cell-Titer Glo reagent.
(§3) Additionally, a negative control group and a positive control group were provided as Bottom and Top, respectively. In the negative control group, the cells were not added, only the same volume of medium was added, and other operations were consistent with those in the experimental group; in the positive control group, the test compound was not added, only the same volume of DMSO was added, and other operations were consistent with those in the experimental group.
(§4) Data analysis: The % compound inhibition was calculated, and fitting was performed to obtain IC50 of the compound.
(§5) % Compound inhibition=1−100%*(Signal−Bottom)/(Top−Bottom).
(§6) Signal represents the signal value of the experimental group, Bottom represents the average signal value of the negative control group, and Top represents the average signal value of the positive control group.

[2] = tested on: human breast cancer cell line SKBR3
Experimental: as §1, §2, §3, §4, §5, §6

[3] = tested on: human ovarian cancer cell line OVCAR3
Experimental: as §1, §2, §3, §4, §5, §6

[4] = Homo sapiens, HCT-116, 72 h, read-out: HCT116 Anti-proliferative activity IC50 (nM), HCT116 cells, cultured 3 days with compound, Cell-Titer Glo
[5] = Homo sapiens, SK-BR-3, 120 h, read-out: SKBR3 Anti-proliferative activity IC50 (nM), SKBR3 cells, cultured 5 days with compound, Cell-Titer Glo
[6] = Homo sapiens, OVCAR-3, 120 h, read-out: OVCAR3 Anti-proliferative activity IC50 (nM)

## CC[C@@]1(O)C(=O)OCc2c1cc1n(c2=O)Cc2c-1nc1cc(F)c(Cl)c(F)c1c2CNC(=O)C(O)C1CC1 (single isomer, unassigned) [Compound 23-P2]
[1]; HCT116 cells, cultured 3 days with compound, Cell-Titer Glo, read-out: HCT116 Anti-proliferative activity IC50
  IC50: 9.5 nM
[2]; SKBR3 cells, cultured 5 days with compound, Cell-Titer Glo, read-out: SKBR3 Anti-proliferative activity IC50
  IC50: 4.5 nM
[3]; OVCAR3 cells, cultured 5 days with compound, Cell-Titer Glo, read-out: OVCAR3 Anti-proliferative activity IC50
  IC50: 1.5 nM

## CC[C@@]1(O)C(=O)OCc2c1cc1n(c2=O)Cc2c-1nc1cc(Cl)c(C)cc1c2CNC(=O)CO [Compound 6, (S)-N-((8-chloro-4-ethyl-4-hydroxy-9-methyl-3,14-dioxo-3,4, 12,14-tetrahydro-1H-pyrano[3′,4′:6,7]indolizino[1,2-b]quinolin-11-yl)methyl)-2-hydroxyacetamide]
[1]; [4]
  IC50: 12.6 nM
[2]; [5]
  IC50: 4.8 nM
[3]; [6]
  IC50: 2.1 nM

## CC[C@@]1(O)C(=O)OCc2c1cc1n(c2=O)Cc2cc3c(CNC(=O)CO)c(O)ccc3nc2-1 [Compound 8, (S)-N-((4-ethyl-4,9-dihydroxy-3,14-dioxo-3,4,12,14-tetrahydro-1H-pyrano[3′,4′:6,7]indolizino[1,2-b]quinolin-10-yl)methyl)-2-hydroxyacetamide]
[1]; [4]
  IC50: 289 nM
[2]; [5]
  IC50: 55.1 nM

## CC[C@@]1(O)C(=O)OCc2c1cc1n(c2=O)Cc2c-1nc1cc(F)c(C)cc1c2CNC(=O)C1(O)CC1 [Compound 9, (S)-N-((4-ethyl-8-fluoro-4-hydroxy-9-methyl-3,14-dioxo-3,4,12, 14-tetrahydro-1H-pyrano[3′,4′:6,7]indolizino[1,2-b]quinolin-11-yl)methyl)-1-hydroxycyclopropane-1-carboxamide]
[1]; [4]
  IC50: 4.6 nM
[2]; [5]
  IC50: 2.1 nM

## CC[C@@]1(O)C(=O)OCc2c1cc1n(c2=O)Cc2c-1nc1cc(Cl)c(C)cc1c2CNC(=O)C1(O)CC1 [Compound 10, (S)-N-((8-chloro-4-ethyl-4-hydroxy-9-methyl-3,14-dioxo-3,4, 12,14-tetrahydro-1H-pyrano[3′,4′:6,7]indolizino[1,2-b]quinolin-11-yl)methyl)-1-hydroxycyclopropan-1-carboxamide]
[1]; [4]
  IC50: 5.6 nM
[2]; [5]
  IC50: 2.3 nM

## CC[C@@]1(O)C(=O)OCc2c1cc1n(c2=O)Cc2c-1nc1cc(Cl)c(C)cc1c2CNC(=O)C(O)C1CC1 (stereo partly drawn) [Compound 11, N-(((S)-8-chloro-4-ethyl-4-hydroxy-9-methyl-3,14-dioxo-3,4, 12,14-tetrahydro-1H-pyrano[3′,4′:6,7]indolizino[1,2-b]quinolin-11-yl)methyl)-2-cyclopropyl-2-hydroxyacetamide]
[1]; [4]
  IC50: 10.4 nM
[2]; [5]
  IC50: 3.2 nM

## CC[C@@]1(O)C(=O)OCc2c1cc1n(c2=O)Cc2c-1nc1cc(F)c(Cl)c(F)c1c2CN [Compound 12, (S)-11-(aminomethyl)-9-chloro-4-ethyl-8,10-difluoro-4-hydroxy-1,12-dihydro-14H-pyrano[3′,4′:6,7]indolizino[1,2-b]quinoline-3,14(4H)-dione]
[1]; [4]
  IC50: 13.7 nM
[2]; [5]
  IC50: 4.8 nM

## CC[C@@]1(O)C(=O)OCc2c1cc1n(c2=O)Cc2c-1nc1ccc3c(c1c2CNC(=O)C(O)C1CC1)CCC3 (stereo partly drawn) [Compound 13, 2-cyclopropyl-N-(((S)-8-ethyl-8-hydroxy-9,12-dioxo-2,3,8,9, 12,14-hexahydro-1H,11H-cyclopentadieno[f]pyrano[3′,4′:6,7]indolizino [1,2-b]quinolin-15-yl)methyl)-2-hydroxyacetamide]
[1]; [4]
  IC50: 8 nM
[3]; [6]
  IC50: 0.7 nM

## CC[C@@]1(O)C(=O)OCc2c1cc1n(c2=O)Cc2c-1nc1cc(F)c(Cl)c(F)c1c2CNC(=O)C1(O)CC1 [Compound 16, (S)-N-((9-chloro-4-ethyl-8,10-difluoro-4-hydroxy-3,14-dioxo-3,4,12,14-tetrahydro-1H-pyrano[3′,4′:6,7]indolizino[1,2-b]quinolin-11-yl)methyl)-1-hydroxycyclopropane-1-carboxamide]
[1]; [4]
  IC50: 3 nM
[2]; [5]
  IC50: 2.3 nM

## CC[C@@]1(O)C(=O)OCc2c1cc1n(c2=O)Cc2c-1nc1cc(Cl)c(C)cc1c2CNC(=O)C(C)(C)O [Compound 17, (S)-N-((8-chloro-4-ethyl-4-hydroxy-9-methyl-3,14-dioxo-3,4, 12,14-tetrahydro-1H-pyrano[3′,4′:6,7]indolizino[1,2-b]quinolin-11-yl)methyl)-2-hydroxy-2-methylpropanamide]
[1]; [4]
  IC50: 6 nM
[2]; [5]
  IC50: 2.7 nM

## CC[C@@]1(O)C(=O)OCc2c1cc1n(c2=O)Cc2c-1nc1cc(Cl)c(C)cc1c2CNC(=O)C(O)C(C)C (stereo partly drawn) [Compound 18, N-(((S)-8-chloro-4-ethyl-4-hydroxy-9-methyl-3,14-dioxo-3,4, 12,14-tetrahydro-1H-pyrano[3′,4′:6,7]indolizino[1,2-b]quinolin-11-yl)methyl)-2-hydroxy-3-methylbutanamide]
[1]; [4]
  IC50: 10.5 nM
[2]; [5]
  IC50: 5.1 nM

## CC[C@@]1(O)C(=O)OCc2c1cc1n(c2=O)Cc2c-1nc1cc(F)c(C)cc1c2CNC1(CO)CC1 [Compound 19, (S)-4-ethyl-8-fluoro-4-hydroxy-11-(((1-(hydroxymethyl)cyclopropyl)amino)methyl)-9-methyl-1,12-dihydro-14H-pyrano[3′,4′:6,7]indolizino[1,2-b]quinoline-3,14(4H)-dione]
[1]; [4]
  IC50: 5 nM
[2]; [5]
  IC50: 4 nM

## CC[C@@]1(O)C(=O)OCc2c1cc1n(c2=O)Cc2c-1nc1ccc3occc3c1c2CNC(=O)CO [Compound 20, (S)-N-((8-ethyl-8-hydroxy-9,12-dioxo-8,9,12,14-tetrahydro-11H-furo[3,2-f]pyrano[3′,4′:6,7]indolizino[1,2-b]quinolin-15-yl)methyl)-2-hydroxyacetamide]
[1]; [4]
  IC50: 20.7 nM
[2]; [5]
  IC50: 10.5 nM

## CC[C@@]1(O)C(=O)OCc2c1cc1n(c2=O)Cc2c-1nc1cc3c(c(Cl)c1c2CNC(=O)C(O)C1CC1)OCO3 (stereo partly drawn) [Compound 30, N-(((S)-15-chloro-7-ethyl-7-hydroxy-8,11-dioxo-7,8,11,13-tetrahydro-10H-[1,3]dioxolo[4,5-g]pyrano[3′,4′:6,7]indolizino[1,2-b]quinolin-14-yl)methyl)-2-cyclopropyl-2-hydroxyacetamide]
[1]; [4]
  IC50: 4.6 nM
[3]; [6]
  IC50: 0.4 nM

## CC[C@@]1(O)C(=O)OCc2c1cc1n(c2=O)Cc2c-1nc1cc(F)c(Cl)c(F)c1c2CNC(=O)CCO [Compound 32, (S)-N-((9-chloro-4-ethyl-8,10-difluoro-4-hydroxy-3,14-dioxo-3,4,12,14-tetrahydro-1H-pyrano[3′,4′:6,7]indolizino[1,2-b]quinolin-11-yl)methyl)-3-hydroxypropanamide]
[1]; [4]
  IC50: 9.8 nM
[3]; [6]
  IC50: 1 nM

## CC[C@@]1(O)C(=O)OCc2c1cc1n(c2=O)Cc2c-1nc1cc(Cl)c3c(c1c2CNC(=O)CO)CCC3 [Compound 33, (S)-N-((4-chloro-8-ethyl-8-hydroxy-9,12-dioxo-2,3,8,9,12,14-hexahydro-1H,11H-cyclopentadieno[f]pyrano[3′,4′:6,7]indolizino[1,2-b]quinolin-15-yl)methyl)-2-hydroxyacetamide]
[1]; [4]
  IC50: 5.5 nM
[3]; [6]
  IC50: 0.8 nM

## CC[C@@]1(O)C(=O)OCc2c1cc1n(c2=O)Cc2c-1nc1cc(Cl)c3c(c1c2CNC(=O)C(O)C1CC1)CCC3 (stereo partly drawn) [Compound 34, N-(((S)-4-chloro-8-ethyl-8-hydroxy-9,12-dioxo-2,3,8,9,12,14-hexahydro-1H,11H-cyclopentadieno[f]pyrano[3′,4′:6,7]indolizino[1,2-b]quinolin-15-yl)methyl)-2-cyclopropyl-2-hydroxyacetamide]
[1]; [4]
  IC50: 2.3 nM
[3]; [6]
  IC50: 0.6 nM

## CC[C@@]1(O)C(=O)OCc2c1cc1n(c2=O)Cc2c-1nc1cc3c(c(F)c1c2CNC(=O)CO)OCO3 [Compound 38, (S)-N-((7-ethyl-15-fluoro-7-hydroxy-8,11-dioxo-7,8,11,13-tetrahydro-10H-[1,3]dioxolo[4,5-g]pyrano[3′,4′:6,7]indolizino[1,2-b]quinolin-14-yl)methyl)-2-hydroxyacetamide]
[3]; [6]
  IC50: 2.9 nM

## CC[C@@]1(O)C(=O)OCc2c1cc1n(c2=O)Cc2c-1nc1cc3c(c(F)c1c2CNC(=O)CN)OCO3 [Compound 40, (S)-2-amino-N-((7-ethyl-15-fluoro-7-hydroxy-8,11-dioxo-7,8,11,13-tetrahydro-10H-[1,3]dioxolo[4,5-g]pyrano[3′,4′:6,7]indolizino[1,2-b]quinolin-14-yl)methyl)acetamide]
[3]; [6]
  IC50: 11.3 nM

— patent publication US20250270227A1, “CAMPTOTHECIN DERIVATIVE, AND PHARMACEUTICAL COMPOSITION AND USE THEREOF” (SIMCERE ZAIMING PHARMACEUTICAL CO., LTD., priority 2021, published 2025)
